# Where “and” joins values, the source holds several entries; their conditions need not be identical. Identical values can stand only once.
# Tests used:
# Staphylococcus aureus [1] = test: Antibacterial activity against Staphylococcus aureus NCIM 2010 assessed as bacterial growth inhibition incubated for 8 hrs; format: functional, organism-based; settings: NCIM 2010, 8 h
# Escherichia coli [2] = test: Antibacterial activity against Escherichia coli NCIM 2688 assessed as bacterial growth inhibition incubated for 8 hrs by absorbance based assay; format: functional
# Pseudomonas aeruginosa = test: Antibacterial activity against Pseudomonas aeruginosa NCIM 2036 assessed as bacterial growth inhibition incubated for 8 hrs by absorbance based assay; format: functional
# Bacillus subtilis [3] = test: Antibacterial activity against Bacillus subtilis NCIM 2079 assessed as bacterial growth inhibition incubated for 8 hrs by absorbance based assay; format: functional
# Staphylococcus aureus [4] = test: Antibacterial activity against Staphylococcus aureus NCIM 2010 assessed as bacterial growth inhibition incubated for 8 hrs by absorbance based assay; format: functional
# Bacillus subtilis [5] = test: Antibacterial activity against Bacillus subtilis NCIM 2079 assessed as reduction in bacterial growth incubated for 8 hrs by absorbance based assay; format: functional, organism-based; settings: NCIM 2079, 8 h
# Staphylococcus aureus [6] = test: Antibacterial activity against Staphylococcus aureus NCIM 2010 assessed as reduction in bacterial growth incubated for 8 hrs by absorbance based assay; format: functional, organism-based; settings: NCIM 2010, 8 h
# [7] = test system: Mycobacterium tuberculosis; test: Antimycobacterial activity against Mycobacterium tuberculosis H37Ra incubated for 8 to 12 days by XTT reduction menadione assay; format: functional; settings: time 8-12 day
# [8] = test system: Mycobacterium tuberculosis; test: Antimycobacterial activity against Mycobacterium tuberculosis H37Ra assessed as bacterial growth inhibition incubated for 8 to 12 days by XTT reduction menadione assay; format: functional; settings: time 8-12 day
# JAR = test: Cytotoxicity against human JAR cells assessed as cell growth inhibition at 10 uM relative to control; format: functional
# K562 = test: Cytotoxicity against human K562 cells assessed as cell growth inhibition; format: functional, cell-based
# Candida parapsilosis = test: Antifungal activity against Candida parapsilosis ATCC 22019 assessed as fungal growth inhibition by spectrophotometry; format: functional; settings: Lodderomyces parapsilosis
# Epidermophyton floccosum [9] = test: Antifungal activity against Epidermophyton floccosum 6999 assessed as fungal growth inhibition by spectrophotometry; format: functional
# HepG2 = test: Cytotoxicity against human HepG2 cells assessed as cell growth inhibition incubated for 2 days by MTT assay; format: functional, cell-based; settings: HepG2, 48 h
# TGF-beta receptor type-1 = biological target: T1, TGF-beta receptor type-1 (Homo sapiens, UniProt P36897); test: Inhibition of human TGF-beta-R1 using TMB substrate incubated for 2.5 hrs by microplate reader analysis
# T1 sequence (P36897 whole entry): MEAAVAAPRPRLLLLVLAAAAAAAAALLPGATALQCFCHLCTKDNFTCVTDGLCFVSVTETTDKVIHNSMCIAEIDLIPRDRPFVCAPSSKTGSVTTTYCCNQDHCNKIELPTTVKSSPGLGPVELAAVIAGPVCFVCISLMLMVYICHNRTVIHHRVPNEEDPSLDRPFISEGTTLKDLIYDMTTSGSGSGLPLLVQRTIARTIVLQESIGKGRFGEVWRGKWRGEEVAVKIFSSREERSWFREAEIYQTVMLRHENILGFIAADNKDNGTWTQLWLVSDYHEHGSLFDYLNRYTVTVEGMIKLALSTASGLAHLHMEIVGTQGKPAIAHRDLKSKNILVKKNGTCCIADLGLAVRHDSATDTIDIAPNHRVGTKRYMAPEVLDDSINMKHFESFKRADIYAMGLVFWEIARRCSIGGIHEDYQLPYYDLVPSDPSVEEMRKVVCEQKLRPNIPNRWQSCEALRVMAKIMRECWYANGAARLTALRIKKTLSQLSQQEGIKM
# [10] = Cytotoxicity against human WI-38 cells assessed as cell growth inhibition incubated for 2 days by MTT assay; format: toxicity, cell-based
# MCF7 = test: Cytotoxicity against human MCF7 cells assessed as cell growth inhibition incubated for 2 days by MTT assay; format: functional, cell-based; settings: MCF7, 48 h
# PC-3 = test: Cytotoxicity against human PC-3 cells assessed as cell growth inhibition incubated for 2 days by MTT assay; format: functional, cell-based; settings: PC-3, 48 h
# [11] = test system: Trichophyton mentagrophytes; test: Antifungal activity against Trichophyton mentagrophytes 5431 assessed as fungal growth inhibition by spectrophotometry; format: functional
# Trichophyton rubrum = test: Antifungal activity against Trichophyton rubrum 6753 assessed as fungal growth inhibition by spectrophotometry; format: functional
# [12] = test system: Trichophyton mentagrophytes; test: Antifungal activity against Trichophyton mentagrophytes 5432 assessed as fungal growth inhibition by spectrophotometry; format: functional
# Trichophyton tonsurans [13] = test: Antifungal activity against Trichophyton tonsurans 700 assessed as fungal growth inhibition by spectrophotometry; format: functional
# Homo sapiens [14] = organism: Homo sapiens; test: Induction of CaCC (unknown origin) current potentiation at 10 uM relative to control
# Leishmania amazonensis = test: Anti-promastigote activity against Leishmania amazonensis (IFLA/BR/67/PH8) assessed as promastigote growth inhibition incubated for 72 hrs by microscopic analysis; format: functional, organism-based; settings: Leishmania amazonensis, IFLA/BR/67/PH8, 72 h
# DNA = test: Binding affinity to parasitic DNA assessed as intrinsic binding constant by UV-visible absorption spectrophotometry; format: nucleic-acid assay
# Epidermophyton floccosum [15] = test: Antifungal activity against Epidermophyton floccosum 6754 assessed as fungal growth inhibition by spectrophotometry; format: functional
# Trichophyton tonsurans [16] = test: Antifungal activity against Trichophyton tonsurans 2822 assessed as fungal growth inhibition by spectrophotometry; format: functional
# Epidermophyton floccosum [17] = test: Antifungal activity against Epidermophyton floccosum assessed as fungal growth inhibition incubated for 7 days by spectrophotometry; format: functional; settings: 168 h, time 7 day
# [18] = Inhibition of CaCC (unknown origin) current potentiation; parameters: species or system Homo sapiens
# [19] = Inhibition of CaCC current potentiation in rat cerebellar Purkinje neurons by electrophysiological method
# Homo sapiens [20] = organism: Homo sapiens; test: Inhibition of CaCC (unknown origin) current potentiation at 10 uM relative to control
# Perkinsus sp. = test: Antiprotozoal activity against Perkinsus sp. assessed as reduction in hypnospore viability at 500 uM measured after 48 hrs by microscopic analysis relative to control; format: functional
# Candida tropicalis = test: Antifungal activity against Candida tropicalis URM 4262 assessed as fungal growth inhibition around drug-chitosan film at 1.28 mg/ml; format: functional; settings: read-out: DIZ
# Staphylococcus aureus [21] = test: Inhibition of EtBr efflux in Staphylococcus aureus SA-1 assessed as reduction in fluorescence intensity at 50 uM measured after 30 mins by spectrophotometry relative to control; format: functional; parameters: scale not given: the % may be the effect or the level left
# Escherichia coli [22] = test: Antibacterial activity against Escherichia coli assessed as bacterial growth inhibition; format: functional
# Enterococcus faecalis = test: Antibacterial activity against Enterococcus faecalis assessed as bacterial growth inhibition; format: functional
# Heyndrickxia coagulans = test: Antibacterial activity against Bacillus coagulans assessed as bacterial growth inhibition; format: functional
smiles,measurement,setting,value
COC(=O)c1c(NC(=O)N[C@@H](C(=O)N[C@@H]2C(=O)N3C(C(=O)O)=C(C)CS[C@H]23)c2ccccc2)sc2c1CCCCCC2,EC50,Staphylococcus aureus [1],0.18 µM
same,MIC,Escherichia coli [2],> 10 µg/mL
same,MIC,Pseudomonas aeruginosa,> 10 µg/mL
same,MIC,Bacillus subtilis [3],2.35 µg/mL
same,MIC,Staphylococcus aureus [4],0.46 µg/mL
same,EC50,Bacillus subtilis [5],0.26 µM
same,EC50,Staphylococcus aureus [6],0.18 µM
same,MIC,[7],0.782 µg/mL
same,EC5,[8],0.782 µM
CCOC(=O)C1=C(Nc2ccccc2)S/C(=C\c2ccc(F)c(C#N)c2)C1=O,inhibition at 10 µM,JAR,9.9%
CCOC(=O)C1=C(Nc2cccc([N+](=O)[O-])c2)S/C(=C\c2ccc[nH]2)C1=O,IC50,K562,87.2 µM
N#Cc1ccsc1/N=C/c1ccccc1[N+](=O)[O-],MIC,Candida parapsilosis,128 µg/mL
same,MIC,Epidermophyton floccosum [9],32 µg/mL
COc1ccc(OC)c(/C=C/C(=O)Nc2sc3c(c2C#N)CCCC3)c1,IC50,HepG2,2.85 µM
same,IC50,TGF-beta receptor type-1,0.087 µM
same,IC50 at 2 days,[10],260 µM
same,IC50,MCF7,3.5 µM
same,IC50,PC-3,2.64 µM
COc1cc(/C=N/c2sccc2C#N)cc(OC)c1OC,MIC,[11],256 µg/mL
same,MIC,Epidermophyton floccosum [9],256 µg/mL
same,MIC,Trichophyton rubrum,64 µg/mL
same,MIC,[12],128 µg/mL
same,MIC,Trichophyton tonsurans [13],128 µg/mL
COC(=O)c1c(NC(=O)Cn2cc(CNC34CC5CC(CC(C5)C3)C4)nn2)sc2c1CCC(C(C)(C)C)C2 (configuration not stated),Activity,Homo sapiens [14],35%
COc1ccc2nc3cc(Cl)ccc3c(Nc3sc4c(c3C#N)CCCC4)c2c1,EC50,Leishmania amazonensis,11 µM
same,Kb,DNA,1 10^4/M
N#Cc1ccsc1/N=C/c1ccc(Br)cc1,MIC,Candida parapsilosis,128 µg/mL
same,MIC,[11],128 µg/mL
same,MIC,Epidermophyton floccosum [15],512 µg/mL
same,MIC,Epidermophyton floccosum [9],512 µg/mL
same,MIC,Trichophyton rubrum,32 µg/mL
same,MIC,[12],1020 µg/mL
same,MIC,Trichophyton tonsurans [13],64 µg/mL
same,MIC,Trichophyton tonsurans [16],1020 µg/mL
same,MIC,Epidermophyton floccosum [17],101 µM
COc1ccc2nc3cc(Cl)ccc3c(Nc3sc4c(c3C#N)CCC4)c2c1,EC50,Leishmania amazonensis,9.6 µM
same,Kb,DNA,1 10^4/M
COC(=O)c1c(NC(=O)Cn2cc(CNC34CC5CC(CC(C5)C3)C4)nn2)sc2c1CCCC2,IC50,[18],1.6 µM
same,IC50,[19],1.6 µM
C=CCNC(=S)Nc1sc2c(c1C(=O)OC)CCCC2,inhibition,Homo sapiens [20],40%
N#Cc1ccsc1/N=C/c1ccc([N+](=O)[O-])cc1,MIC,Candida parapsilosis,1020 µg/mL
same,MIC,Epidermophyton floccosum [15],512 µg/mL
same,MIC,Epidermophyton floccosum [9],1020 µg/mL
same,MIC,Trichophyton rubrum,64 µg/mL
same,MIC,Trichophyton tonsurans [13],512 µg/mL
N#Cc1ccsc1/N=C/c1ccccc1,MIC,Epidermophyton floccosum [15],512 µg/mL
same,MIC,Epidermophyton floccosum [9],16 µg/mL
same,MIC,[12],256 µg/mL
same,MIC,Trichophyton tonsurans [13],32 µg/mL
same,MIC,Trichophyton tonsurans [16],32 µg/mL
N#Cc1c(N)sc2c1CCCC2,Activity,Perkinsus sp.,38%
same,zone of inhibition at 1280 µg/mL,Candida tropicalis,1.5 mm
CCOC(=O)c1c(NC(=O)C(F)(F)F)sc2c1CCN(C(=O)CCCCCBr)C2,Activity,Staphylococcus aureus [21],125%
CCCCCCCC(=O)N1CCc2c(sc(NC(=O)C(F)(F)F)c2C(=O)OCC)C1,Activity,Staphylococcus aureus [21],85%
COc1ccc(OC)c(/C=C/C(=O)Nc2sc3c(c2C#N)CCC3)c1,IC50,HepG2,2.7 µM
same,IC50,TGF-beta receptor type-1,0.09 µM and 0.087 µM
same,IC50 at 2 days,[10],185 µM
same,IC50,MCF7,3.2 µM
same,IC50,PC-3,1.35 µM
O=C(N[C@H](CO)[C@H](O)c1ccc([N+](=O)[O-])cc1)C(Cl)Cl [CHLORAMPHENICOL],MIC,Escherichia coli [22],0.05 µg/mL
same,MIC,Enterococcus faecalis,0.05 µg/mL
same,MIC,Heyndrickxia coagulans,0.41 µg/mL
N#Cc1c(NC(=O)/C=C/c2ccc(O)cc2)sc2c1CCC2,IC50,HepG2,3.55 µM
same,IC50,TGF-beta receptor type-1,0.087 µM
same,IC50 at 2 days,[10],236 µM
same,IC50,MCF7,4.92 µM
same,IC50,PC-3,3.4 µM

# Source: ChEMBL document CHEMBL5214926, “Recent contribution of medicinally active 2-aminothiophenes: A privileged scaffold for drug discovery” (Eur J Med Chem, 2022)
